The record followed here is PubChem BioAssay (NCI).

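A five-concentration, 48-hour dose response in 96-well plates underlies each endpoint, interpolated linearly between surrounding concentrations. At the TGI there is no net growth.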 Where only a bound is given, the exact number is not on record here.

Among the test systems are 786-0 renal; CAKI-1 renal; DU-145 prostate; HS 578T breast; HT29 colon; M14 melanoma; MDA-MB-231 breast; MDA-N; NCI-H23 lung; SF-268 CNS; SF-295 CNS; SN12C renal; UO-31 renal.
Holding throughout (experiment): growth of human tumour cells (NCI), 48 h

As to `O=C(O)C(F)(OC(F)(F)C(F)(OC(F)(F)C(F)(F)C(F)(F)F)C(F)(F)F)C(F)(F)F` (stereo unspecified), the TGI in the assay on 786-0 renal, with CAKI-1 renal, in the assay on DU-145 prostate, with HS 578T breast, in the assay on HT29 colon and in the assay on M14 melanoma was > 100 µM each time. Besides, the TGI in the assay with MDA-MB-231 breast, with MDA-N, with NCI-H23 lung, with SF-268 CNS, in the assay on SF-295 CNS and with SN12C renal was > 100 µM in each case. In addition, in the assay with UO-31 renal, the TGI was > 100 µM.
Take `CCCCCCCCCCCCP(=O)(O)OCC(N)C(=O)O` (stereo unspecified): the TGI in the assay with 786-0 renal is > 100 µM; with CAKI-1 renal it was > 100 µM; in the assay on DU-145 prostate it was > 100 µM; in the assay on HS 578T breast it was 58.2 µM; with HT29 colon, > 100 µM; with M14 melanoma, > 100 µM. Besides, the TGI in the assay with MDA-MB-231 breast is 65.3 µM; in the assay with MDA-N, 55.4 µM; with NCI-H23 lung, > 100 µM; in the assay with SF-268 CNS, > 100 µM; in the assay with SF-295 CNS, 41.4 µM; in the assay on SN12C renal it was 42.4 µM. In the assay with UO-31 renal, this molecule showed a TGI of 26 µM.
For the molecule `CN(C)/C=N/S(=O)(=O)c1nn2c(C=O)c(-c3ccc(-c4ccc([N+](=O)[O-])cc4)o3)nc2s1`, the TGI was 2.47 µM in the assay with 786-0 renal; 4.06 µM in the assay with CAKI-1 renal; 26.6 µM with DU-145 prostate; > 21.8 µM in the assay with HS 578T breast; 2.19 µM in the assay on HT29 colon; 20 µM in the assay with MDA-MB-231 breast. The TGI was 2.7 µM in the assay on MDA-N; 16.2 µM in the assay with NCI-H23 lung; > 29 µM in the assay with SF-268 CNS; > 46.5 µM with SF-295 CNS; 4.57 µM with SN12C renal; 5.99 µM with UO-31 renal.
As for `Cc1cccc(NC(=S)N/N=C(/c2ccccc2)c2ccccn2)c1`, the TGI worked out at 14.6 µM in the assay with 786-0 renal; 12.7 µM in the assay with CAKI-1 renal; 9.34 µM with DU-145 prostate; 76.1 µM in the assay with HS 578T breast; 17.4 µM in the assay with HT29 colon; 2.58 µM in the assay on M14 melanoma. Further, the TGI in the assay on MDA-MB-231 breast was found to be 6.73 µM; in the assay with MDA-N it was 20.8 µM; in the assay on NCI-H23 lung, 13.9 µM; in the assay on SF-268 CNS, 12.6 µM; with SF-295 CNS it was 10.7 µM; in the assay on SN12C renal, 12.4 µM. The molecule also registered a TGI in the assay on UO-31 renal of 10.4 µM.
`CP(C)(=S)P(C)(C)=S`: the TGI with 786-0 renal, in the assay on CAKI-1 renal, in the assay with DU-145 prostate, in the assay on HS 578T breast, in the assay on HT29 colon and in the assay on M14 melanoma was > 100 µM each time. Also, the TGI in the assay on MDA-MB-231 breast, with MDA-N, with NCI-H23 lung, with SF-268 CNS, in the assay with SF-295 CNS and in the assay with SN12C renal was > 100 µM in each case. For the same molecule, the TGI with UO-31 renal is > 100 µM.
`O=C1C[C@H]2[C@H](c3ccc(Br)cc3)[C@H]3C(=O)c4ccccc4NC(=O)[C@@H]3[C@@]2(O)c2ccccc2N1`: the TGI is 99.2 µM in the assay on 786-0 renal; 28.3 µM in the assay on CAKI-1 renal; > 100 µM in the assay with DU-145 prostate; > 100 µM with HS 578T breast; 30.8 µM in the assay on HT29 colon; 29 µM with M14 melanoma. For the same molecule, the TGI with MDA-MB-231 breast is 36.1 µM; in the assay with MDA-N, 55 µM; in the assay with NCI-H23 lung, 38.9 µM; in the assay with SF-268 CNS it was > 100 µM; in the assay with SF-295 CNS it was > 100 µM; with SN12C renal, > 100 µM.
For `CCOC(=O)c1cc(-c2ccc(Cl)cc2)c([N+](=O)[O-])n1C`, the TGI with 786-0 renal is > 10 µM; in the assay with DU-145 prostate it was > 10 µM; in the assay on HS 578T breast, > 10 µM; in the assay with HT29 colon it was > 10 µM; with M14 melanoma, > 10 µM; in the assay on MDA-MB-231 breast it was 5.8 µM. For the same molecule, the TGI with MDA-N, with NCI-H23 lung, in the assay on SF-268 CNS, in the assay on SF-295 CNS, in the assay on SN12C renal and with UO-31 renal was > 10 µM in each case.
`CN(C(=O)c1cccs1)C(=S)N1CCN(c2ccccc2)CC1`: the TGI in the assay on 786-0 renal, in the assay on DU-145 prostate, in the assay with HS 578T breast, with HT29 colon, in the assay with M14 melanoma and in the assay with MDA-MB-231 breast was > 100 µM each time. Also, the TGI with MDA-N, with NCI-H23 lung, in the assay with SF-268 CNS, in the assay with SF-295 CNS, in the assay with SN12C renal and in the assay on UO-31 renal was > 100 µM throughout.
`Cc1nc2c(ncn2CCO)c(=O)[nH]1`: the TGI in the assay on 786-0 renal, with CAKI-1 renal, in the assay on DU-145 prostate, with HS 578T breast, in the assay on HT29 colon and with M14 melanoma was > 100 µM in each case. The TGI in the assay on MDA-MB-231 breast, in the assay with MDA-N, in the assay on NCI-H23 lung, in the assay with SF-268 CNS, in the assay with SF-295 CNS and in the assay with SN12C renal was > 100 µM each time.
For the molecule `Cc1c2cccc-2c(OCCO)cc2c1[nH]c1ccccc12`, the TGI in the assay with 786-0 renal was 7.14 µM; with CAKI-1 renal, 3.67 µM; in the assay on DU-145 prostate, > 50.1 µM; in the assay with HS 578T breast, > 49.6 µM; in the assay with HT29 colon, 14.2 µM; with M14 melanoma, 4.36 µM. Moreover, the TGI in the assay on MDA-MB-231 breast came to 6.56 µM; with MDA-N, 7.9 µM; in the assay on NCI-H23 lung it was 12.3 µM; in the assay with SF-295 CNS, 14.7 µM; in the assay on SN12C renal, 11.8 µM; in the assay with UO-31 renal, 3.09 µM.
Consider `COC(=O)[C@@H]1C[C@]2(CC=C(C)C)c3ccccc3N(S(=O)(=O)c3ccccc3)[C@@H]2N1C(=O)OC`, for which the TGI with 786-0 renal is > 100 µM; in the assay on CAKI-1 renal, > 100 µM; in the assay on DU-145 prostate, > 100 µM; in the assay with HS 578T breast, 66.9 µM; with HT29 colon it was > 100 µM; in the assay with MDA-MB-231 breast it was > 100 µM. Also, the TGI with MDA-N was > 100 µM; in the assay on NCI-H23 lung it was > 100 µM; in the assay on SF-268 CNS it was 99.3 µM; in the assay on SF-295 CNS, > 100 µM; with SN12C renal, > 100 µM; with UO-31 renal it was > 100 µM.
